According to patent US10961278B2, “Vancomycin derivative, preparation method, pharmaceutical composition and use thereof” (SHANGHAI INSTITUTE OF MATERIA MEDICA, CHINESE ACADEMY OF …, priority 2016, dated 2021):
Converted amounts (≈) assume the structure as drawn. Like-named read-outs stand apart in the source and are kept apart here.

How the values were obtained:
[1] = tested on: vancomycin-middle resistant Staphylococcus aureus Mu50 strain; assay: In vitro antibacterial activity assay (MIC, CLSI dilution method); assay type: cell-based
[2] = tested on: vancomycin-sensitive Staphylococcus aureus Newman strain; assay: as above; assay type: cell-based; settings: Staphylococcus aureus, 16 h, S. aureus Newman, 37° C.
[3] = Staphylococcus aureus, 16 h, S. aureus Mu50, 37° C., read-out: MIC Mu50

Structure (SMILES) | MIC [1, 3] [µg/mL] | MIC ([2]; NEWMAN) [µg/mL] | MIC ([1]; Staphylococcus aureus; S. aureus Mu50, 37° C., 16 h; read-out: MIC Mu50) [µg/mL] | MIC [2] [µg/mL] | MIC ([1]; Staphylococcus aureus, 16 h, read-out: MIC Mu50) [µg/mL]
CN[C@H](CC(C)C)C(=O)N[C@H]1C(=O)N[C@@H](CC(N)=O)C(=O)N[C@H]2C(=O)N[C@H]3C(=O)N[C@H](C(=O)N[C@H](C(=O)NCCCN(C)C)c4cc(O)c(CNCCOC5OC(CO)[C@@H](O)C(O)C5O)c(O)c4-c4cc3ccc4O)[C@H](O)c3ccc(c(Cl)c3)Oc3cc2cc(c3OC2O[C@H](CO)C(O)C(O)[C@H]2O[C@H]2CC(C)(NCc3ccc(-c4ccc(Cl)cc4)cc3)[C@H](O)C(C)O2)Oc2ccc(cc2Cl)[C@H]1O (stereo partly drawn) [Van021] | 4 (≈ 2.03 µM) | 2 (≈ 1.02 µM) |  |  | 
CN[C@H](CC(C)C)C(=O)N[C@H]1C(=O)N[C@@H](CC(N)=O)C(=O)N[C@H]2C(=O)N[C@@H]3C(=O)N[C@H](C(=O)N[C@H](C(=O)O)c4cc(O)c(CNC5C(O)OC(CO)[C@H](O)[C@@H]5O)c(O)c4-c4cc3ccc4O)[C@H](O)c3ccc(c(Cl)c3)Oc3cc2cc(c3O[C@@H]2O[C@H](CO)C(O)C(O)[C@H]2O[C@H]2CC(C)(NCc3ccc(C#C[Si](C)(C)C)cc3)[C@H](O)[C@H](C)O2)Oc2ccc(cc2Cl)[C@H]1O (stereo partly drawn) [Van033] |  |  | 2 (≈ 1.09 µM) | 0.5 (≈ 0.274 µM) | 
CN[C@H](CC(C)C)C(=O)N[C@H]1C(=O)N[C@@H](CC(N)=O)C(=O)N[C@H]2C(=O)N[C@@H]3C(=O)N[C@H](C(=O)NC(C(=O)NCCCN(C)C)c4cc(O)cc(O)c4-c4cc3ccc4O)[C@H](O)c3ccc(c(Cl)c3)Oc3cc2cc(c3OC2O[C@H](CO)C(O)C(O)[C@H]2O[C@H]2CC(C)(NCc3ccc(-c4ccc(Cl)cc4)cc3)[C@H](O)C(C)O2)Oc2ccc(cc2Cl)[C@H]1O (stereo partly drawn) [Van020] |  |  |  | 1 (≈ 0.577 µM) | 1 (≈ 0.577 µM)
CCc1ccc(CNC2(C)C[C@H](O[C@H]3C(Oc4c5cc6cc4Oc4ccc(cc4Cl)[C@@H](O)[C@@H](NC(=O)[C@@H](CC(C)C)NC)C(=O)N[C@@H](CC(N)=O)C(=O)N[C@H]6C(=O)N[C@H]4C(=O)N[C@H](C(=O)N[C@H](C(=O)O)c6cc(O)c(CNCCCNC(=O)[C@H](O)[C@@H](O)[C@H](O)[C@H](O)CO)c(O)c6-c6cc4ccc6O)[C@H](O)c4ccc(c(Cl)c4)O5)O[C@H](CO)C(O)C3O)CC(C)[C@H]2O)cc1 (stereo partly drawn) [Van018] | 8 (≈ 4.37 µM) | 4 (≈ 2.19 µM) |  |  | 
CCCCCCCCCCNCCNC1(C)C[C@H](O[C@H]2C(Oc3c4cc5cc3Oc3ccc(cc3Cl)[C@@H](O)[C@@H](NC(=O)[C@@H](CC(C)C)NC)C(=O)N[C@@H](CC(N)=O)C(=O)N[C@H]5C(=O)N[C@H]3C(=O)N[C@H](C(=O)N[C@H](C(=O)O)c5cc(O)c(CNCCO[C@@H]6OC(CO)[C@@H](O)C(O)C6NC(C)=O)c(O)c5-c5cc3ccc5O)[C@H](O)c3ccc(c(Cl)c3)O4)O[C@H](CO)C(O)C2O)OC(C)[C@H]1O (stereo partly drawn) [Van003] | 16 (≈ 8.38 µM) | 4 (≈ 2.1 µM) |  |  | 

The remaining compounds from weak to strong by MIC [1, 3], led by results:

MIC [1, 3] [µg/mL] | MIC ([2]; NEWMAN) [µg/mL] | Structure (SMILES) | MIC ([1]; Staphylococcus aureus; S. aureus Mu50, 37° C., 16 h; read-out: MIC Mu50) [µg/mL] | MIC [2] [µg/mL] | MIC ([1]; Staphylococcus aureus, 16 h, read-out: MIC Mu50) [µg/mL]
1 (≈ 0.486 µM) | 0.25 (≈ 0.121 µM) | CCCCCCCCCCNCCNC1(C)C[C@H](O[C@H]2C(Oc3c4cc5cc3Oc3ccc(cc3Cl)[C@@H](O)[C@@H](NC(=O)[C@@H](CC(C)C)NC)C(=O)N[C@@H](CC(N)=O)C(=O)N[C@H]5C(=O)N[C@H]3C(=O)N[C@H](C(=O)N[C@H](C(=O)O)c5cc(O)c(CNCCCNC(=O)[C@H](O)[C@@H](O)[C@H](O[C@@H]6OC(CO)[C@H](O)C(O)C6O)[C@H](O)CO)c(O)c5-c5cc3ccc5O)[C@H](O)c3ccc(c(Cl)c3)O4)O[C@H](CO)C(O)C2O)OC(C)[C@H]1O (stereo partly drawn) [Van010] |  |  | 
1 (≈ 0.527 µM) | 0.5 (≈ 0.264 µM) | CCCCCCCCCCNCCNC1(C)C[C@H](O[C@H]2C(Oc3c4cc5cc3Oc3ccc(cc3Cl)[C@@H](O)[C@@H](NC(=O)[C@@H](CC(C)C)NC)C(=O)N[C@@H](CC(N)=O)C(=O)N[C@H]5C(=O)N[C@H]3C(=O)N[C@H](C(=O)N[C@H](C(=O)O)c5cc(O)c(CNCCCNC(=O)[C@H](O)[C@@H](O)[C@H](O)[C@H](O)CO)c(O)c5-c5cc3ccc5O)[C@H](O)c3ccc(c(Cl)c3)O4)O[C@H](CO)C(O)C2O)OC(C)[C@H]1O (stereo partly drawn) [Van009] |  |  | 
0.5 (≈ 0.267 µM) | 0.125 (≈ 0.0668 µM) | CCCCCc1ccc(CNC2(C)C[C@H](O[C@H]3C(Oc4c5cc6cc4Oc4ccc(cc4Cl)[C@@H](O)[C@@H](NC(=O)[C@@H](CC(C)C)NC)C(=O)N[C@@H](CC(N)=O)C(=O)N[C@H]6C(=O)N[C@H]4C(=O)N[C@H](C(=O)N[C@H](C(=O)O)c6cc(O)c(CNCCCNC(=O)[C@H](O)[C@@H](O)[C@H](O)[C@H](O)CO)c(O)c6-c6cc4ccc6O)[C@H](O)c4ccc(c(Cl)c4)O5)O[C@H](CO)C(O)C3O)CC(C)[C@H]2O)cc1 (stereo partly drawn) [Van031] |  |  | 
0.25 (≈ 0.14 µM) | ≤ 0.0625 | CCCCCCCCCCNC1(C)C[C@H](O[C@@H]2C(O)C(O)[C@@H](CO)O[C@H]2Oc2c3cc4cc2Oc2ccc(cc2Cl)[C@@H](O)[C@@H](NC(=O)[C@@H](CC(C)C)NC)C(=O)N[C@@H](CC(N)=O)C(=O)N[C@H]4C(=O)N[C@@H]2C(=O)N[C@H](C(=O)N[C@H](C(=O)O)c4cc(O)c(CNC5C(O)OC(CO)[C@H](O)[C@@H]5O)c(O)c4-c4cc2ccc4O)[C@H](O)c2ccc(c(Cl)c2)O3)O[C@@H](C)[C@H]1O (stereo partly drawn) [Van034] |  |  | 
